Test results taken from PMC11054638, “Transport of Non-Steroidal Anti-Inflammatory Drugs across an Oral Mucosa Epithelium In Vitro Model” (Pharmaceutics, 2024).

Test: Transport study across blank inserts without cells
Details: Ibuprofen study, mean ± SD
Experimental: First, TEER was measured in cultivation media on the day of experiment. Afterwards, cells and blanks were washed twice with DMEM on the apical (300 µL) and basolateral (900 µL) compartments and selected cells and blanks were treated with DMEM with or without 100 µM probenecid or verapamil on the apical and basolateral side at 37 °C for 30 min. […] To cells which were pre-incubated with probenecid or verapamil, 100 µM probenecid or verapamil was applied apically as well. DMSO content was adapted for cells with no inhibitors, and DMSO and dd-H2O content was adjusted in the basolateral compartment as well in order to apply the same vehicle concentrations on the apical and basolateral compartment. […] Subsequently, duplicates of apical sample were collected, and samples were frozen at −80 °C until further analysis with High-Performance Liquid Chromatography (HPLC).
Mean values of relative fluorescence unit (RFU) or detected area [mAU × min] were used for calculation. For the first timepoint, the clearance [µL] for the detected area was calculated as shown in the formula below (1a), with Abasot1 as the measured area [mAU × min] at the first time point of the basolateral sample, Vbaso as the basolateral volume [µL] and Astock as the area measured for the applied stock solution. […] Clearance [µL] for carboxyfluorescein was calculated with the same formulas using RFU. (1a) Clearance=Abasot1×Vbaso/AStock (1b) Clearancetn=Abasotn×Vbaso/AStock−∑(Abasotn−1 ×3− Abasot1 ×3)
Cleared volume [µL] was calculated by plotting the sum of clearance at all time points over time [min]. The resulting slope PS [µL/min] was calculated inversely. For calculation of the PScell, the inverse PS blanks were subtracted, as shown below in Formula (2). (2) 1/PScell=1/PSall−1/PSblank

In the case of `CC(C)Cc1ccc(C(C)C(=O)O)cc1` (stereo not drawn) [ibuprofen], the PS blank (Probenecid) is reported as 0.22 ± 0.02 µL/min, the PS blank (Verapamil) is reported as 0.21 ± 0.02 µL/min and the PS blank (w/o Inhibitor) is reported as 0.21 ± 0.03 µL/min.
